Results from the NIST ThermoML archive (doi:10.1021/je900676b).

Assay: heat capacity at constant pressure per volume
Conditions: 10000 kPa, Liquid, Tian-Calvet differential microcalorimeter

CCCCCCCCn1cc[n+](C)c1.O=S(=O)([N-]S(=O)(=O)C(F)(F)F)C(F)(F)F
Conditions | heat capacity [J/K/m3]
325 K | 1950000
337.36 K | 1964000
349.71 K | 1973000
362.07 K | 1984000
374.43 K | 1993000
386.8 K | 2004000
399.16 K | 2012000
411.52 K | 2018000
423.88 K | 2029000
436.25 K | 2036000
448.61 K | 2049000
460.97 K | 2049000
473.33 K | 2053000
485.69 K | 2056000
498.06 K | 2068000
510.42 K | 2069000
522.79 K | 2084000
535.15 K | 2082000
547.51 K | 2099000
554.94 K | 2098000

CCCCCC[n+]1ccn(C)c1.O=S(=O)([N-]S(=O)(=O)C(F)(F)F)C(F)(F)F
Conditions | heat capacity [J/K/m3]
325.02 K | 1953000
337.38 K | 1966000
349.75 K | 1972000
362.12 K | 1982000
374.48 K | 1989000
386.84 K | 2004000
399.19 K | 2009000
411.56 K | 2021000
423.91 K | 2034000
436.27 K | 2038000
448.63 K | 2053000
460.99 K | 2050000
473.35 K | 2051000
485.72 K | 2055000
498.09 K | 2067000
510.46 K | 2066000
522.84 K | 2081000
535.2 K | 2079000
547.56 K | 2096000
554.94 K | 2121000
